Experiment [1] relates to Nannizzia gypsea. The experiment is described as follows: Antifungal activity against Microsporum gypseum at 100 units/disc after 72 to 96 hr by disc diffusion method. Type of experiment: functional. (A growth-free zone around the sample is the usual read-out of agar diffusion tests.)
Experiment [2] relates to Rhizopus. The experiment is described as follows: Antifungal activity against Rhizopus at 100 units/disk after 72 to 96 hr by disk diffusion method. Format: functional.
The subject of experiment [3] is Mucor. The experiment can be described thus: Antifungal activity against Mucor at 100 units/disk after 72 to 96 hr by disk diffusion method. Type of experiment: functional.
The test system of experiment [4] is Aspergillus flavus. The experiment is described as follows: Antifungal activity against Aspergillus flavus at 100 units/disk after 72 to 96 hr by disk diffusion method. Format: functional.
Experiment [5] has as its system Pseudomonas. The experiment is described as follows: Antibacterial activity against Pseudomonas at 5 ug/disk after 24 hr by disk diffusion method. Format: functional. Particulars: read-out: IZ.
For experiment [6], the system named is Klebsiella pneumoniae. The experiment can be described thus: Antibacterial activity against Klebsiella pneumoniae at 5 ug/disk after 24 hr by disk diffusion method. Particulars: read-out: IZ.
In experiment [7] the test system is Shigella flexneri. The experiment can be described thus: Antibacterial activity against Shigella flexneri at 5 ug/disc after 24 hr by disk diffusion method. Format: functional. Particulars: read-out: IZ.
The subject of experiment [8] is Salmonella typhi. The experiment can be described thus: Antibacterial activity against Salmonella enterica subsp. enterica serovar Typhi at 5 ug/disk after 24 hr by disk diffusion method. Format: functional. Particulars: read-out: IZ.
The subject of experiment [9] is Vibrio cholerae. The experiment can be described thus: Antibacterial activity against Vibrio cholerae at 5 ug/disc after 24 hr by disk diffusion method. The conditions noted are these: read-out: IZ. Format: functional.
Experiment [10] relates to Staphylococcus aureus. The experiment is described as follows: Antibacterial activity against Staphylococcus aureus at 5 ug/disc after 24 hr by disk diffusion method. The conditions noted are these: read-out: IZ.
Experiment [11] relates to Streptococcus. The experiment can be described thus: Antibacterial activity against beta-hemolytic Streptococcus at 5 ug/disk after 24 hr by disk diffusion method. Particulars: read-out: IZ. Type of experiment: functional.
Experiment [12] deals with Nannizzia gypsea. The experiment is described as follows: Antifungal activity against Microsporum gypseum at 500 ppm after 72 to 96 hr by disk diffusion method. Type of experiment: functional. Particulars: read-out: IZ.
The test system of experiment [13] is Nannizzia gypsea. The experiment can be described thus: Antifungal activity against Microsporum gypseum at 200 ppm after 72 to 96 hr by disk diffusion method. The conditions noted are these: read-out: IZ. Format: functional.
For experiment [14], the system named is Rhizopus. The experiment can be described thus: Antifungal activity against Rhizopus at 500 ppm after 72 to 96 hr by disk diffusion method. Format: functional. Particulars: read-out: IZ.
For experiment [15], the system named is Nannizzia gypsea. The experiment is described as follows: Antifungal activity against Microsporum gypseum at 100 ppm after 72 to 96 hr by disk diffusion method. Type of experiment: functional. Particulars: read-out: IZ.
Experiment [16] concerns Rhizopus. The experiment is described as follows: Antifungal activity against Rhizopus at 200 ppm after 72 to 96 hr by disk diffusion method. Type of experiment: functional. Particulars: read-out: IZ.
For experiment [17], the system named is Vibrio cholerae. The experiment can be described thus: Antibacterial activity against Vibrio cholerae at 100 ppm after 24 hr by disk diffusion method. Type of experiment: functional. The conditions noted are these: read-out: IZ.
The subject of experiment [18] is Streptococcus. The experiment can be described thus: Antibacterial activity against beta-hemolytic Streptococcus at 500 ppm after 24 hr by disk diffusion method. The conditions noted are these: read-out: IZ. Format: functional.
The subject of experiment [19] is Streptococcus. The experiment can be described thus: Antibacterial activity against beta-hemolytic Streptococcus at 100 ppm after 24 hr by disk diffusion method. Format: functional, organism-based.
In experiment [20] the test system is Streptococcus. The experiment can be described thus: Antibacterial activity against beta-hemolytic Streptococcus at 200 ppm after 24 hr by disk diffusion method. Type of experiment: functional. The conditions noted are these: read-out: IZ.
The test system of experiment [21] is Staphylococcus aureus. The experiment is described as follows: Antibacterial activity against Staphylococcus aureus at 500 ppm after 24 hr by disk diffusion method. Format: functional. The conditions noted are these: read-out: IZ.
Experiment [22] relates to Staphylococcus aureus. The experiment can be described thus: Antibacterial activity against Staphylococcus aureus at 200 ppm after 24 hr by disk diffusion method. Type of experiment: functional. The conditions noted are these: read-out: IZ.
For experiment [23], the system named is Staphylococcus aureus. The experiment is described as follows: Antibacterial activity against Staphylococcus aureus at 100 ppm after 24 hr by disk diffusion method. Format: functional.
For experiment [24], the system named is Rhizopus. The experiment can be described thus: Antifungal activity against Rhizopus at 100 ppm after 72 to 96 hr by disk diffusion method. Type of experiment: functional. Particulars: read-out: IZ.
The subject of experiment [25] is Mucor. The experiment can be described thus: Antifungal activity against Mucor at 500 ppm after 72 to 96 hr by disk diffusion method. Type of experiment: functional. Particulars: read-out: IZ.
The subject of experiment [26] is Mucor. The experiment can be described thus: Antifungal activity against Mucor at 200 ppm after 72 to 96 hr by disk diffusion method. Format: functional. The conditions noted are these: read-out: IZ.
Experiment [27] deals with Mucor. The experiment is described as follows: Antifungal activity against Mucor at 100 ppm after 72 to 96 hr by disk diffusion method. Type of experiment: functional.
For experiment [28], the system named is Aspergillus flavus. The experiment is described as follows: Antifungal activity against Aspergillus flavus at 500 ppm after 72 to 96 hr by disk diffusion method. Format: functional. The conditions noted are these: read-out: IZ.
For experiment [29], the system named is Aspergillus flavus. The experiment can be described thus: Antifungal activity against Aspergillus flavus at 200 ppm after 72 to 96 hr by disk diffusion method. Format: functional. The conditions noted are these: read-out: IZ.
For experiment [30], the system named is Pseudomonas. The experiment can be described thus: Antibacterial activity against Pseudomonas at 500 ppm after 24 hr by disk diffusion method. Format: functional. The conditions noted are these: read-out: IZ.
Experiment [31] has as its system Aspergillus flavus. The experiment can be described thus: Antifungal activity against Aspergillus flavus at 100 ppm after 72 to 96 hr by disk diffusion method. Type of experiment: functional. Particulars: read-out: IZ.
Experiment [32] has as its system Pseudomonas. The experiment is described as follows: Antibacterial activity against Pseudomonas at 200 ppm after 24 hr by disk diffusion method. Format: functional. Particulars: read-out: IZ.
Experiment [33] concerns Pseudomonas. The experiment is described as follows: Antibacterial activity against Pseudomonas at 100 ppm after 24 hr by disk diffusion method. Type of experiment: functional. Particulars: read-out: IZ.
For experiment [34], the system named is Klebsiella pneumoniae. The experiment is described as follows: Antibacterial activity against Klebsiella pneumoniae at 500 ppm after 24 hr by disk diffusion method. Type of experiment: functional. The conditions noted are these: read-out: IZ.
In experiment [35] the test system is Klebsiella pneumoniae. The experiment is described as follows: Antibacterial activity against Klebsiella pneumoniae at 200 ppm after 24 hr by disk diffusion method. Format: functional. Particulars: read-out: IZ.
The subject of experiment [36] is Escherichia coli. The experiment can be described thus: Antibacterial activity against Escherichia coli at 500 ppm after 24 hr by disk diffusion method. Particulars: read-out: IZ. Type of experiment: functional.
Experiment [37] deals with Klebsiella pneumoniae. The experiment is described as follows: Antibacterial activity against Klebsiella pneumoniae at 100 ppm after 24 hr by disk diffusion method. Format: functional. Particulars: read-out: IZ.
For experiment [38], the system named is Escherichia coli. The experiment is described as follows: Antibacterial activity against Escherichia coli at 200 ppm after 24 hr by disk diffusion method. Type of experiment: functional. The conditions noted are these: read-out: IZ.
In experiment [39] the test system is Escherichia coli. The experiment can be described thus: Antibacterial activity against Escherichia coli at 100 ppm after 24 hr by disk diffusion method. Format: functional, organism-based.
The test system of experiment [40] is Shigella flexneri. The experiment is described as follows: Antibacterial activity against Shigella flexneri at 500 ppm after 24 hr by disk diffusion method. Type of experiment: functional. Particulars: read-out: IZ.
The test system of experiment [41] is Shigella flexneri. The experiment can be described thus: Antibacterial activity against Shigella flexneri at 200 ppm after 24 hr by disk diffusion method. The conditions noted are these: read-out: IZ. Type of experiment: functional.
Experiment [42] relates to Salmonella typhi. The experiment can be described thus: Antibacterial activity against Salmonella enterica subsp. enterica serovar Typhi at 200 ppm after 24 hr by disk diffusion method. Particulars: read-out: IZ. Format: functional.
Experiment [43] deals with Vibrio cholerae. The experiment is described as follows: Antibacterial activity against Vibrio cholerae at 500 ppm after 24 hr by disk diffusion method. Type of experiment: functional. Particulars: read-out: IZ.
Experiment [44] deals with Salmonella typhi. The experiment can be described thus: Antibacterial activity against Salmonella enterica subsp. enterica serovar Typhi at 100 ppm after 24 hr by disk diffusion method. Type of experiment: functional. The conditions noted are these: read-out: IZ.
In experiment [45] the test system is Vibrio cholerae. The experiment can be described thus: Antibacterial activity against Vibrio cholerae at 200 ppm after 24 hr by disk diffusion method. Particulars: read-out: IZ. Type of experiment: functional.
Experiment [46] relates to Shigella flexneri. The experiment is described as follows: Antibacterial activity against Shigella flexneri at 100 ppm after 24 hr by disk diffusion method. Format: functional.
For experiment [47], the system named is Salmonella typhi. The experiment can be described thus: Antibacterial activity against Salmonella enterica subsp. enterica serovar Typhi at 500 ppm after 24 hr by disk diffusion method. Format: functional. The conditions noted are these: read-out: IZ.

The structures appear in SMILES notation. Active and inactive are the calls of the source. The calls are words filed in the database; no cut-off is given here.

Turning to `OC(Cn1cncn1)(Cn1cncn1)c1ccc(F)cc1F` [FLUCONAZOLE], the “inhibition zone (IZ)” value in experiment [1], in [2], in experiment [3] and in [4] was 20 mm in each case.

`O=C(O)c1cn(C2CC2)c2cc(N3CCNCC3)c(F)cc2c1=O` [CIPROFLOXACIN]: the zone of inhibition at 5 µg/disc was 23 mm in [5]; 26 mm in [6]; 23 mm in experiment [7]; 22 mm in [8]; 23 mm in [9]; 25 mm in experiment [10]. Moreover, in experiment [11], the zone of inhibition at 5 µg/disc is 28 mm.

Regarding `CC1(C)c2nnsc2C(c2ccccc2)NC1c1ccccc1` (configuration not stated), the zone of inhibition at 500 ppm in experiment [12] turned out to be 30 mm; in experiment [14], 17 mm; in experiment [18] it was 22 mm; in experiment [21], 22 mm; in experiment [25] it was 17 mm; in experiment [28] it was 17 mm. Besides, the zone of inhibition at 500 ppm in experiment [30] worked out at 12 mm; in experiment [34] it was 22 mm; in [36], 12 mm; in experiment [40], 17 mm; in experiment [43], 17 mm; in experiment [47] it was 12 mm. The zone of inhibition at 200 ppm amounted to 17 mm in experiment [13]; 17 mm in experiment [16]; 12 mm in [20]; 17 mm in experiment [22]; 12 mm in experiment [26]; 12 mm in experiment [29]. The zone of inhibition at 200 ppm in [32] is 12 mm; in [35], 17 mm; in [38] it was 12 mm; in experiment [41], 12 mm; in experiment [42] it was 12 mm; in experiment [45], 12 mm. Moreover, the zone of inhibition at 100 ppm in [15], in experiment [17], in experiment [24], in [31], in [33] and in experiment [37] was 12 mm throughout. Besides, the zone of inhibition at 100 ppm in experiment [44] worked out at 12 mm. The “inhibition zone (IZ)” value in [19], in experiment [23], in experiment [27], in [39] and in experiment [46] was “inactive” in each case.

The values are drawn from ChEMBL document CHEMBL3045391, “Synthesis and biological evaluation of 5,7-diaryl-4,4-dimethyl-4,5,6,7-tetrahydropyridino[3,4-d]-1,2,3-thiadiazoles” (2007).
